The values that follow come from patent US12673946B2, “Pyrimidin-4(3H)-one derivatives as TRPV4 antagonists” (RaQualia Pharma Inc., priority 2020, dated 2026).

As a reminder, the IC50 is the concentration needed to halve the response being measured. A higher IC50 goes with weaker potency.

The target of the test is T1, human TRPV4 (Homo sapiens, UniProt Q9HBA0).
T1 construct: host or cells: tetracycline-inducible Flp-In T-REx 293 cells
The test can be described thus: Hypotonicity-induced Ca2+ influx (Fluo-4, FDSS). It counts as cell-based. Put shortly:
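Flp-In T-REx 293 cells with tetracycline-induced human TRPV4, loaded with Fluo-4 for 60 min at 25 °C. Compound added 5 min before hypotonic mannitol/CaCl2 solution. Ca2+ signal recorded for 4.5 min on FDSS.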

Setting [1] is: Flp-In T-REx 293 cells expressing human TRPV4, examples listed under heading 'Human IC50<50 nM'.
The mark [2] stands for this setting: Flp-In T-REx 293 cells stably expressing human TRPV4, compounds listed by potency bin (<10 nM Tables 96-1/96-2, <3 nM Table 97).

T1 sequence (Q9HBA0 whole entry): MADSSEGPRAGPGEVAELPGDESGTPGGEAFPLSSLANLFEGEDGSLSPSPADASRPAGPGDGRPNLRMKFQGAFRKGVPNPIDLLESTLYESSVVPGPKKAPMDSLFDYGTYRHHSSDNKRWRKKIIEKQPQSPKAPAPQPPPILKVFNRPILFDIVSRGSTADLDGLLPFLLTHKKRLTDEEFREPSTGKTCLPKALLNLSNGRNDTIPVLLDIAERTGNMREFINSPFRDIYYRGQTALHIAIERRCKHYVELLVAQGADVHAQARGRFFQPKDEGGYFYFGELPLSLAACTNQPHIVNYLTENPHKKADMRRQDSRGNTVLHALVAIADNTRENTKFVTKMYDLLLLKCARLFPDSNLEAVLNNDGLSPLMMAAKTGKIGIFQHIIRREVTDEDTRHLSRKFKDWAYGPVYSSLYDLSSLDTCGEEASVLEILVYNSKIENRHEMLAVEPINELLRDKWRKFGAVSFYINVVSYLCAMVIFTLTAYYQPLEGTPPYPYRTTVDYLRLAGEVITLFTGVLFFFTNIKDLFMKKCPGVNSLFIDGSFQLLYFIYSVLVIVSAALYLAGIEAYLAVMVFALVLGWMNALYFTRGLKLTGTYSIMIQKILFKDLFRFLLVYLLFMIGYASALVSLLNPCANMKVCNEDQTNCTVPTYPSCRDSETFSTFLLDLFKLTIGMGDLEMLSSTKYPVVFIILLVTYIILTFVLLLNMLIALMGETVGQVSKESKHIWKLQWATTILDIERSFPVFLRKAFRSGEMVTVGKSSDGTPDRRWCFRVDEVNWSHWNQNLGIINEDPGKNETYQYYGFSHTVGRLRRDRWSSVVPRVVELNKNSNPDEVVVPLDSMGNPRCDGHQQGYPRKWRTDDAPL

Turning to `O=C([C@H](O)c1cccc(C(F)(F)F)c1)N1CCCc2nc(C3(c4cccc(C5=CCC(C(F)(F)F)CC5)c4)CC3)[nH]c(=O)c2C1` (stereo partly drawn) [42-35], the IC50 under setting [1] was less than 50 nM and the concentration for half-maximal inhibition (IC50) under setting [2] was less than 10 nM.

`CN(C)Cc1cccc(-c2cccc(C3(c4nc5c(c(=O)[nH]4)CN(C(=O)[C@H](O)c4cccc(C(F)(F)F)c4)CCC5)CC3)c2)c1` [42-36]: the IC50 under setting [1] was less than 50 nM.

`CN1CCN(Cc2ccc(-c3cccc(C4(c5nc6c(c(=O)[nH]5)CN(C(=O)[C@H](O)c5cccc(C(F)(F)F)c5)CCC6)CC4)c3)cc2)CC1` [42-37] had a half-maximal inhibitory concentration (IC50) under setting [1] of less than 50 nM.

Compound `Cn1cc(-c2cccc(C3(c4nc5c(c(=O)[nH]4)CN(C(=O)[C@H](O)c4cccc(C(F)(F)F)c4)CCC5)CC3)c2)ccc1=O` [42-38] came in with a 50% inhibitory concentration (IC50) under setting [1] of less than 50 nM.

For the compound `O=C([C@H](O)c1cccc(C(F)(F)F)c1)N1CCCc2nc(C3(c4cccc(-c5ccc(OCc6ccccn6)cc5)c4)CC3)[nH]c(=O)c2C1` [42-43], the concentration for half-maximal inhibition (IC50) is less than 50 nM under setting [1] and less than 3 nM under setting [2].

In turn, `O=C([C@H](O)c1cccc(C(F)(F)F)c1)N1CCCc2nc(C3(c4cccc(-c5cncc(C(F)(F)F)c5)c4)CC3)[nH]c(=O)c2C1` [42-45] gave a concentration for half-maximal inhibition (IC50) under setting [1] of less than 50 nM and an IC50 under setting [2] of less than 10 nM.

Turning to `O=C([C@H](O)c1cccc(C(F)(F)F)c1)N1CCCc2nc(C3(c4cccc(-c5ccc(C(F)(F)F)nc5)c4)CC3)[nH]c(=O)c2C1` [42-46], the IC50 is less than 50 nM under setting [1] and less than 3 nM under setting [2].

In the case of `O=C([C@H](O)c1cccc(C(F)(F)F)c1)N1CCCc2nc(C3(c4cccc(-c5ccc6ccccc6c5)c4)CC3)[nH]c(=O)c2C1` [42-47], the IC50 is less than 50 nM under setting [1] and less than 10 nM under setting [2].

On to `O=C([C@H](O)c1cccc(C(F)(F)F)c1)N1CCCc2nc(C3(c4cccc(-c5ccnc(C(F)(F)F)c5)c4)CC3)[nH]c(=O)c2C1` [42-48], for which the IC50 by setting is: under setting [1], less than 50 nM; under setting [2], less than 3 nM.

Take `O=C([C@H](O)c1cccc(C(F)(F)F)c1)N1CCCc2nc(C3(c4cccc(-c5cccc6ccccc56)c4)CC3)[nH]c(=O)c2C1` [42-49]: the IC50 is, setting by setting: under setting [1], less than 50 nM; under setting [2], less than 10 nM.

Take `CN1CCc2cc(-c3cccc(C4(c5nc6c(c(=O)[nH]5)CN(C(=O)[C@H](O)c5cccc(C(F)(F)F)c5)CCC6)CC4)c3)ccc21` [42-50]: the IC50 is, setting by setting: under setting [1], less than 50 nM; under setting [2], less than 10 nM.

On to `O=C([C@H](O)c1cccc(C(F)(F)F)c1)N1CCCc2nc(C3(c4cccc(-c5ccc(N6CCCC6)nc5)c4)CC3)[nH]c(=O)c2C1` [42-51], for which the IC50 reads like this: under setting [1], less than 50 nM; under setting [2], less than 10 nM.

Compound `O=C([C@H](O)c1cccc(C(F)(F)F)c1)N1CCCc2nc(C3(c4cccc(-c5ccc(CN6CCCC6)cc5)c4)CC3)[nH]c(=O)c2C1` [42-52] gave an IC50 under setting [1] of less than 50 nM.

Take `CN(C)Cc1ccc(-c2cccc(C3(c4nc5c(c(=O)[nH]4)CN(C(=O)[C@H](O)c4cccc(C(F)(F)F)c4)CCC5)CC3)c2)cc1` [42-53]: the IC50 under setting [1] was less than 50 nM.

As to `CNc1ccc(-c2cccc(C3(c4nc5c(c(=O)[nH]4)CN(C(=O)[C@H](O)c4cccc(C(F)(F)F)c4)CCC5)CC3)c2)cn1` [42-54], the IC50 by setting is: under setting [1], less than 50 nM; under setting [2], less than 10 nM.

With `N#Cc1ccc(-c2cccc(C3(c4nc5c(c(=O)[nH]4)CN(C(=O)[C@H](O)c4cccc(C(F)(F)F)c4)CCC5)CC3)c2)cn1` [42-55], the half-inhibitory concentration (IC50) under setting [1] is less than 50 nM and the IC50 under setting [2] is less than 3 nM.

On to `O=C([C@H](O)c1cccc(C(F)(F)F)c1)N1CCCc2nc(C3(c4cccc(-c5ccccc5F)c4)CC3)[nH]c(=O)c2C1` [42-56], for which the IC50 was less than 50 nM under setting [1] and less than 10 nM under setting [2].

With `Cc1ccc(-c2cccc(C3(c4nc5c(c(=O)[nH]4)CN(C(=O)[C@H](O)c4cccc(C(F)(F)F)c4)CCC5)CC3)c2)cc1` [42-57], the 50% inhibitory concentration (IC50) by setting is: under setting [1], less than 50 nM; under setting [2], less than 10 nM.

For the compound `O=C([C@H](O)c1cccc(C(F)(F)F)c1)N1CCCc2nc(C3(c4cccc(-c5cccc(F)c5)c4)CC3)[nH]c(=O)c2C1` [42-58], the 50% inhibitory concentration (IC50) by setting is: under setting [1], less than 50 nM; under setting [2], less than 10 nM.
